In brackets after ≈: the same amount, converted by molar mass.
Experiments:
[1] = Selectivity index, ratio of GI50 for human THP1 cells to MIC for dormant phase Mycobacterium tuberculosis H37Ra ATCC 25177; format: toxicity, cell-based, THP-1; conditions: read-out: Selectivity Index
[2] = Cytotoxicity against human THP1 cells assessed as growth inhibition after 48 hrs by MTT assay; format: cell-based, THP-1
[3] = Cytotoxicity against human PANC1 cells assessed as growth inhibition after 48 hrs by MTT assay; format: cell-based, PANC-1
[4] = Selectivity index, ratio of GI50 for human A549 cells to MIC for dormant phase Mycobacterium tuberculosis H37Ra ATCC 25177; format: toxicity, cell-based; conditions: read-out: Selectivity Index
[5] = Antioxidant activity assessed as DPPH radical scavenging activity after 30 mins by spectrophotometric analysis; format: physicochemical
[6] = tested on: Mycobacterium tuberculosis; assay: Antitubercular activity against dormant phase Mycobacterium tuberculosis H37Ra ATCC 25177 incubated for 12 days by XTT reduction menadione assay; format: functional, organism-based; conditions: 288 h
[7] = Selectivity index, ratio of GI50 for human PANC1 cells to MIC for dormant phase Mycobacterium tuberculosis H37Ra ATCC 25177; format: toxicity, cell-based, PANC-1; conditions: read-out: Selectivity Index
[8] = (§1) Cytotoxicity against human A549 cells assessed as growth inhibition after 48 hrs by MTT assay; format: cell-based; conditions: A549 cells
A549 = assay: as §1; format: cell-based; conditions: a549, 48 h

## Cc1ccc(OCc2cn(Cc3ccc([N+](=O)[O-])cc3)nn2)cc1
[1]
  selectivity ratio: 0.5
[2]; THP1 cells
  GI50 at 48 h: 14.2 µg/mL (≈ 43.8 µM)
[2]; thp-1, 48 h
  GI90: 66.4 µg/mL (≈ 205 µM)
[3]; PANC1 cells
  GI50 at 48 h: > 100 µg/mL
[3]; panc-1, 48 h
  GI90: > 100 µg/mL
[4]
  selectivity ratio: > 3.3
[5]
  IC50: 10.9 µg/mL (≈ 33.6 µM)
[6]
  IC50: 1.1 µg/mL (≈ 3.39 µM)
  MIC: 29.9 µg/mL (≈ 92.2 µM)
[7]
  selectivity ratio: > 3.3
[8]
  GI50 at 48 h: > 100 µg/mL
A549
  GI90: > 100 µg/mL
